Measured values from US9440957B2, “Compounds and compositions for modulating EGFR Activity” (Novartis AG, priority 2012, dated 2016).

Legend:
Format in all cases: cell-based
[1] = target: human EGFR WT (NIH/3T3 cells, EGF-induced) (Homo sapiens, UniProt P00533); test: EGFR target modulation in engineered NIH/3T3 cell lines (phospho-EGFR Y1068 AlphaLISA), EGFR WT; conditions: engineered NIH/3T3 cells, read-out: NIH3T3 IC50 (μM) EGFR (WT)
Outline: (§1)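 Read-out is phospho-Y1068 AlphaLISA on cell lysates, with anti-total EGFR at 1 nM final equilibrated 1 h at room temperature. Cells were dosed 3 h with a 12-point 1:3 series starting from a 10 μM stock. Only the WT line received 50 ng/ml EGF for 5 min.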

[2] = target: human EGFR L858R (NIH/3T3 cells) (Homo sapiens, UniProt P00533, L858R); test: EGFR target modulation in engineered NIH/3T3 cell lines (phospho-EGFR Y1068 AlphaLISA), EGFR L858R; conditions: engineered NIH/3T3 cells, read-out: NIH3T3 IC50 (μM) EGFR (L858R)
Outline: as §1

H1975 (EGFR L858/T790M) = H1975 (EGFR L858/T790M) (Homo sapiens, UniProt P00533, L858R/T790M); test: EGFR target modulation in H1975 cell line (phospho-EGFR Y1173 ELISA)
Outline: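 pY1173 was measured by sandwich ELISA with anti-EGFR capture and chemiluminescent read-out. Before lysis, each cell line (HCC827, H1975, H3255) was treated with compound for 3 hours. IC50 derived by non-linear fit, normalised to EGF-stimulated controls as maximum.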

HEKn (EGFR WT) = HEKn (EGFR WT) (Homo sapiens, UniProt P00533); test: EGFR target modulation in HEKn (EGFR-WT) cell line (phospho-EGFR Y1173 ELISA); conditions: value outside parentheses
Outline: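 Primary neonatal human keratinocytes (EGFR WT) were exposed to serially diluted compounds for 3 h, then lysed on ice. Phospho-EGFR Y1173 was measured by chemiluminescent sandwich ELISA using anti-EGFR capture.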

Chain of H1975 (EGFR L858/T790M) (P00533 25-1210 T790M/L858R): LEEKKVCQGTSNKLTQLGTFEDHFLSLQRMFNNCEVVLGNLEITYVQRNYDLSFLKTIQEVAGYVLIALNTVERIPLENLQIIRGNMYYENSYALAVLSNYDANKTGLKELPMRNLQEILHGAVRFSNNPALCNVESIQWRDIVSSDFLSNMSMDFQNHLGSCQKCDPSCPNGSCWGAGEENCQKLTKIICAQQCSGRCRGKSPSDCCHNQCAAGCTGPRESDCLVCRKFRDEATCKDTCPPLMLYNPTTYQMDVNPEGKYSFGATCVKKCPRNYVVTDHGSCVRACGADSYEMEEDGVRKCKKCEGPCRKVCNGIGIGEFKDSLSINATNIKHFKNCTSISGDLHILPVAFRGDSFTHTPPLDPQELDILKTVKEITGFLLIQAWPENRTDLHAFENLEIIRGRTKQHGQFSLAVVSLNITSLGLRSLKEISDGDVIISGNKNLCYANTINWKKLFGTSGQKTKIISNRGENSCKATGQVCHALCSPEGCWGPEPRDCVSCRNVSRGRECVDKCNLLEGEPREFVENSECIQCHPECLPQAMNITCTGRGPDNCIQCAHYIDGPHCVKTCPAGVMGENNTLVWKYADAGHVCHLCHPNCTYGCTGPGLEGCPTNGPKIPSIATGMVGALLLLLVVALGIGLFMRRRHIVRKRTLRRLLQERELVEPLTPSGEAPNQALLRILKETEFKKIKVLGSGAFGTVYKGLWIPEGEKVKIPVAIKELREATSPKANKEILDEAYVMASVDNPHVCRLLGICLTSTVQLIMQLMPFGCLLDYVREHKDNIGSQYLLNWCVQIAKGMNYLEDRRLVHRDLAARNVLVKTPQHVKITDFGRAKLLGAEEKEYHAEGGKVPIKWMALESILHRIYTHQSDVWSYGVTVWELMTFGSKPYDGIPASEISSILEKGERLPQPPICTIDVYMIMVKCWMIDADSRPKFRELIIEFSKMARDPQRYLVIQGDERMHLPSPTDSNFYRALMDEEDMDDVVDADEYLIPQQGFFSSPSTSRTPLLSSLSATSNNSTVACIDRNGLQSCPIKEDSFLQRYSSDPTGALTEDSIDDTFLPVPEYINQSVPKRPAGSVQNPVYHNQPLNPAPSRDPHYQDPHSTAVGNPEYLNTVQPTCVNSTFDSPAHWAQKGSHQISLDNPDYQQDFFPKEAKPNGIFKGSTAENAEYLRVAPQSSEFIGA
Chain of human EGFR L858R (NIH/3T3 cells) (P00533 25-1210 L858R): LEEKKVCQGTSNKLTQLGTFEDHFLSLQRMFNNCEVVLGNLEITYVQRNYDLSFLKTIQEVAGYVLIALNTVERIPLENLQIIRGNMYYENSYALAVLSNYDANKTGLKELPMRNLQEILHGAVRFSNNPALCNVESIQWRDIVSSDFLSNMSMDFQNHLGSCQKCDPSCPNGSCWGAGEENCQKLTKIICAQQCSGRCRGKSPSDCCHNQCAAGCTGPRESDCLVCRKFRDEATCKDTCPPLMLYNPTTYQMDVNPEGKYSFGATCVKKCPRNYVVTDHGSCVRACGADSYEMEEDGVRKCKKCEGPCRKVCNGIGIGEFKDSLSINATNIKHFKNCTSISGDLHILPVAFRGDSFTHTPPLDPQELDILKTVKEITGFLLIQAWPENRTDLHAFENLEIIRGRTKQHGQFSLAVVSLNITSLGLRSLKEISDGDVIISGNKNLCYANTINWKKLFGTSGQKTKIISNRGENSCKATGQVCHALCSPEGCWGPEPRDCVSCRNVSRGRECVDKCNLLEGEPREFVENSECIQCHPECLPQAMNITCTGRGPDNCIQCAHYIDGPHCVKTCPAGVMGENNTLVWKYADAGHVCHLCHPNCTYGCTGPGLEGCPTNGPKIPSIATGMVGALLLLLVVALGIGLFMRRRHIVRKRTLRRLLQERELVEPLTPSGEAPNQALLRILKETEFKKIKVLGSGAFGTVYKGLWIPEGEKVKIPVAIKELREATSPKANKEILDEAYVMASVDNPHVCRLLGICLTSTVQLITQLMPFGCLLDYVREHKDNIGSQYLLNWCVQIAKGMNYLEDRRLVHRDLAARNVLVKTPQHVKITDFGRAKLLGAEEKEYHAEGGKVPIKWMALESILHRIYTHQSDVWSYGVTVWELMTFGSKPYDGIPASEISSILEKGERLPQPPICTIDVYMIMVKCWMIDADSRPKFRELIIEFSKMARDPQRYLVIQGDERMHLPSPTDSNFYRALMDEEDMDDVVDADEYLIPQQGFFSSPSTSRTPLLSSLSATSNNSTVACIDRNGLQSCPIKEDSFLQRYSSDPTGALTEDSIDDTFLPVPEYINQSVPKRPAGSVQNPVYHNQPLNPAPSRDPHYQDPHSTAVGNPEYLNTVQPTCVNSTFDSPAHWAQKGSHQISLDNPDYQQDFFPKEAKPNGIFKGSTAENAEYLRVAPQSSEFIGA
Chain of HEKn (EGFR WT) (P00533 25-1210): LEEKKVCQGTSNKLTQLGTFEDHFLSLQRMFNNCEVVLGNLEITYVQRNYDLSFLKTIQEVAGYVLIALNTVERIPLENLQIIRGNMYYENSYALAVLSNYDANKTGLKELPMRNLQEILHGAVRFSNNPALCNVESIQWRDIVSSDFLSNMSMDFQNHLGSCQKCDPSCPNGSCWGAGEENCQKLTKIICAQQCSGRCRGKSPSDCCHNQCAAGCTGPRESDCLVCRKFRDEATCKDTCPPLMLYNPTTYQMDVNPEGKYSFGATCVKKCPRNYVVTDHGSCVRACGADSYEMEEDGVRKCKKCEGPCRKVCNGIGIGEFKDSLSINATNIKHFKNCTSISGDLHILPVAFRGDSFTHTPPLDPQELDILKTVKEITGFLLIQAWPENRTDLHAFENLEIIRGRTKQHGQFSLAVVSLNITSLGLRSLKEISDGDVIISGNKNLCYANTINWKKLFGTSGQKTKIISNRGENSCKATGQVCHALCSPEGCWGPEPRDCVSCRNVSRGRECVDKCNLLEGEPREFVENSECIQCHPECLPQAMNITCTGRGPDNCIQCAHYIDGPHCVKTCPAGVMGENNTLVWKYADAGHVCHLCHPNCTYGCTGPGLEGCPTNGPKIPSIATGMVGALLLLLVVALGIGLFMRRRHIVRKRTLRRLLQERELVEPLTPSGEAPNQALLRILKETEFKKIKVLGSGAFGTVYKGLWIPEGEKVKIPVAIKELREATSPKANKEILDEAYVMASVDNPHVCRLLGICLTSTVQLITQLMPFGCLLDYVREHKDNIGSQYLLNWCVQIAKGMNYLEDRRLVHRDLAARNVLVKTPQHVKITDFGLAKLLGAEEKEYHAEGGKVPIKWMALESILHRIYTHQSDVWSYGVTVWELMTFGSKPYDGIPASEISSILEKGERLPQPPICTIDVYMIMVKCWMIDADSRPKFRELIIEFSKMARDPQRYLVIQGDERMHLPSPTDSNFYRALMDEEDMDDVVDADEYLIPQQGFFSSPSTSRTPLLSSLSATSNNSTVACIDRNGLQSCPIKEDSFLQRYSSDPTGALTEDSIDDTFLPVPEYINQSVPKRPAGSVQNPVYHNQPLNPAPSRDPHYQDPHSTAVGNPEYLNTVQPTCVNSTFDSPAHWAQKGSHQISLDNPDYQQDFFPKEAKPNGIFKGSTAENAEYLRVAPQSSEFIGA
Chain of human EGFR WT (NIH/3T3 cells, EGF-induced) (P00533 25-1210): as above

C=CC(=O)N1CCCC[C@@H](n2c(NC(=O)c3ccnc(C)c3)nc3cc(CN4CC[C@H](F)C4)cc(C)c32)C1 [Example 17-147]
IC50 [1]: 0.025 µM | IC50 [2]: < 0.001 µM | IC50 (H1975 (EGFR L858/T790M)): < 1 nM | IC50 (HEKn (EGFR WT)): 79 nM

C=CC(=O)N1CCCC[C@@H](n2c(NC(=O)c3ccnc(C)c3)nc3cc(CN4CC[C@@H](F)C4)cc(C)c32)C1 [Example 17-148]
IC50 [1]: 0.083 µM | IC50 [2]: 0.001 µM | IC50 (H1975 (EGFR L858/T790M)): 1 nM | IC50 (HEKn (EGFR WT)): 77 nM

C=CC(=O)N1CCCC[C@@H](n2c(NC(=O)c3ccnc(C)c3)nc3cc(CN4CC[C@H](OC)C4)cc(C)c32)C1 [Example 17-149]
IC50 [1]: 0.015 µM | IC50 [2]: < 0.001 µM | IC50 (H1975 (EGFR L858/T790M)): < 1 nM | IC50 (HEKn (EGFR WT)): 76 nM

C=CC(=O)N1CCCC[C@@H](n2c(NC(=O)c3ccnc(C)c3)nc3cc(CN4CC[C@@H](OC)C4)cc(C)c32)C1 [Example 17-150]
IC50 [1]: 0.042 µM | IC50 [2]: 0.001 µM | IC50 (H1975 (EGFR L858/T790M)): 2 nM | IC50 (HEKn (EGFR WT)): 129 nM

C=CC(=O)N1CCCC[C@@H](n2c(NC(=O)c3ccnc(C)c3)nc3cc(CN4CC(F)C4)cc(C)c32)C1 [Example 17-152]
IC50 [1]: 0.032 µM | IC50 [2]: < 0.001 µM | IC50 (H1975 (EGFR L858/T790M)): 1 nM | IC50 (HEKn (EGFR WT)): 112 nM

C=CC(=O)N1CCCC[C@@H](n2c(NC(=O)c3ccnc(C)c3)nc3cc(CN4CC(OC)C4)cc(C)c32)C1 [Example 17-154]
IC50 [1]: 0.01 µM | IC50 [2]: < 0.001 µM | IC50 (H1975 (EGFR L858/T790M)): < 1 nM | IC50 (HEKn (EGFR WT)): 79 nM
